Test results taken from ChEMBL document CHEMBL3044887, “The antifungal activity of widdrol and its biotransformation by Colletotrichum gloeosporioides (penz.) Penz. & Sacc. and Botrytis cinerea Pers.: Fr” (2006).
The source made the active and inactive calls. The calls are words filed in the database; no cut-off is given here.

Experiments:
Botrytis cinerea [1] = assay: Antifungal activity against Botryotinia fuckeliana 2100 assessed as inhibition of mycelial growth at 100 ppm measured after 6 days; format: functional
Botrytis cinerea [2] = assay: Antifungal activity against Botryotinia fuckeliana 2100 assessed as inhibition of mycelial growth at 200 ppm measured after 6 days; format: functional; conditions: Botrytis cinerea, 2100, 144 h; read-out: GI
[3] = test system: Colletotrichum gloeosporioides; assay: Antifungal activity against Colletotrichum gloeosporioides 20122 assessed as inhibition of mycelial growth at => 100 ppm measured after 24 to 144 hr; format: functional, organism-based

SMILES | growth inhibition (GI) (Botrytis cinerea [1]) | other results
C[C@@]1(O)CC=C2[C@@](C)(CCC[C@@]2(C)CO)CC1 | inactive | 
CC1(C)CC[C@@H]2O[C@]13[C@H](O)C[C@@](C)(O)CC[C@]23C | inactive | 
CC1(C)C(=O)CC[C@@]2(C)CC[C@](C)(O)CC=C12 | inactive | 
CC1(C)C2=CC[C@@](C)(O)CC[C@]2(C)CC[C@H]1O | inactive | 
CC1(C)C2=CC[C@@](C)(O)CC[C@]2(C)CC[C@@H]1O | inactive | 
CC1(C)CCC[C@@]2(C)CC[C@](C)(O)CC=C12 [WIDDROL] |  | inhibition of growth at 100 ppm (Botrytis cinerea [1]; Botrytis cinerea, 2100, 144 h, read-out: GI): 60%; inhibition of growth at 200 ppm (Botrytis cinerea [2]): 70.7%; growth inhibition (GI) [3]: inactive
